Values quoted from earlier work, collected in US20100267661A1, “BETA GLUCANS AND METHODS OF USE THEREOF” (ImmuDyne, Inc., priority 2009, published 2010).

Settings: rats

(1,3)-β-D-glucan [particulate yeast (1,3)-β-D-glucan]
Adverse or toxic effects: no adverse or toxic effects
